The test system of series [1] is TRPC6 mRNA. In kind it is cell-based.
For the next series, the system named is γ-secretase. As to conditions: phase 3 clinical trial, cited from earlier work.
The subject of series [2] is TRPC5 mRNA. Briefly: TRPC5 mRNA in rat neurons after APOE-containing culture medium supernatant. In kind it is cell-based. The settings on record: rat neurons cultured in vitro for 8 days, after 2 hr. The protocol:
(§1) The culture medium supernatant containing different APOE isoforms were added into rat neurons cultured in vitro for 8 days. The mRNA levels of TRPC6 and TRPC5 were detected after 2 hr (mean±SE, n=8).

The subject of series [3] is TRPC6 mRNA. Briefly: TRPC6 mRNA in Jurkat cells after APOE-containing culture medium. In kind it is cell-based, human. As to conditions: after 5 hr. The procedure: (§2) The culture medium containing different APOE isoforms were added into the Jurkat cells (human T cell line from peripheral blood). The mRNA levels of TRPC6 and TRPC5 were detected after 5 hr (mean±SE, n=5).

For series [4], the system named is TRPC5 mRNA. The series is described as follows: TRPC5 mRNA in Jurkat cells after APOE-containing culture medium. Format: cell-based, human. The settings on record: after 5 hr. The procedure:
as §2

Series [5] has as its system TRPC6 mRNA. The series is described as follows: TRPC6 mRNA in rat neurons after APOE-containing culture medium supernatant. The settings on record: rat neurons cultured in vitro for 8 days, after 2 hr. In kind it is cell-based. The protocol:
as §1

Series [6] has as its system Aβ levels in primary cultured rat cortical neurons. The series is described as follows: Aβ ELISA of medium, primary cultured rat cortical neurons electrotransfected with siRNA. In kind it is cell-based. As to conditions: Table 6, 7 days after electrotransfection, control siRNA = 1. The procedure: (§3) Upon collecting the culture medium of the cells, Aβ40 and Aβ42 levels were quantified with sandwich ELISA kit, respectively (purchased from Invitrogen). The forebrain of the mouse was dissected and separated, and then homogenized with GuHCL. After that, total Aβ was determined by ELISA. For determining TBST(Tris-Buffered Saline and 1% TritonX100, 1% SDS, 1% DOC) soluble and insoluble Aβ, upon TBST homogenation and centrifugation of the forebrain of the mouse, the supernatant was determined for TBST soluble Aβ by ELISA, and the precipitate was determined for TBST insoluble Aβ by ELISA upon another GuHCL homogenate.
Fetal rat was collected on the 17th day of SD rat pregnancy. Cortical neurons of the rat brains were separated, obtained, and electrotransfected by Nucleofector Device (Amaxa) with TRPC6 siRNA1 as set forth by SEQ ID NO.:12 (sense strand) and SEQ ID NO.:13 (anti-sense strand), TRPC6 siRNA2 as set forth by SEQ ID NO.:18 ([…], sense strand) and SEQ ID NO.:19 ([…], anti-sense strand), control siRNAs as set forth by SEQ ID NO.:14 (sense strand) and SEQ ID NO.:15 (anti-sense strand), and TRPC5 siRNA as set forth by SEQ ID NO.:20 ([…], sense strand) and SEQ ID NO.:21 ([…], anti-sense strand). 7 days after electrotransfection, Aβ levels in the medium were examined by ELISA.

The subject of series [7] is Aβ levels in HEK293APP stable cells. Briefly: Aβ ELISA, HEK293APP stable cells treated with TAT fusion peptides. In kind it is cell-based. The protocol:
as §3
In this Example, the second transmembrane domain (487-507aa, TM2) was selected to fuse with cell penetrating peptide TAT and the fusion peptide TAT-TM2 and the mutant thereof TAT-TM2mut were obtained. Their effects on Aβ levels were examined in HEK293APP stable cells.
6.1.2 The Effect of Different Doses of Fusion Protein TAT-TM2 on Aβ Levels in HEK293APP Stable Cells were Determined.
To search for shorter fragments which could inhibit Aβ levels, TM2 was divided into N- and C-terminals and fused with TAT respectively. The effects of TAT-TM2-N, TAT-TM2-C and TAT-TM2-C mutant on Aβ levels in HEK293APP cells was examined.

The subject of series [8] is Aβ levels in APP/PS1 mice. The series is described as follows: Brain Aβ levels in APP/PS1 mice after intraperitoneal injection of peptide. Format: in vivo. The settings on record: intraperitoneally injected, brain tissue 3 hours later. The protocol: 6. Construction of APP/PS1 AD Mouse Models • a) APP/PS1 mice (with B6C3 background) were purchased from Jackson laboratory (#004462). • b) Construction of TRPC6 transgenic mouse
as §3
TAT or TAT-TM2 was intraperitoneally injected into APP/PS1 mice, and brain tissue samples were prepared 3 hours later and the Aβ levels were determined: general method 8 (n=8)

The subject of series [9] is γ-secretase cleavage of C99. Briefly: C99-GVP/UAS luciferase reporter system with peptide. The settings on record: Table 11; luciferase activity; TAT = 1. In kind it is cell-based. The protocol: HEK293APP were transfected with C99-GVP/UASLuciferase, CTRL or TRPC6 plasmids, and were lysed 24 hours later. The luciferase activities were determined using the Luciferase assay system (purchased from Promega). β-gal was co-transfected to normalize the transfection efficiency.
(§4) C99 is the C-terminal 99 amino acids of APP and the direct substrate of γ-secretase. C0S7C99 cells were passaged in 12-well plate till the density approached 100%. Each well was treated with 5 um peptide for 12 h and the Aβ levels in the culture medium was determined with ELISA.
A general note: Reporter assays use an easily measured gene product as a stand-in for the process of interest.

In series [10] the test system is γ-secretase cleavage of C99. Briefly: Aβ ELISA, C0S7C99 cells treated with peptide. In kind it is cell-based. As to conditions: Table 11; C0S7-C99 stable cells, 5 um peptide for 12 h; TAT = 1. The procedure:
as §4
A general note: ELISA stands for enzyme-linked immunosorbent assay.

For series [11], the system named is Aβ levels in primary cultured cortical neurons. Briefly: Aβ levels in primary cultured cortical neurons treated with TAT-TM2. Format: cell-based. The procedure: as §3
6.1.3 The Effect of the Fusion Peptide TAT-TM2 on Aβ Levels in Primary Cultured Cortical Neurons was Determined and the Results were Shown in FIG. 9c: […]

Series [12] relates to γ-secretase cleavage of Notch. The series is described as follows: NICD immunoblotting, Notch-transfected cells treated with peptide. Format: cell-based. As to conditions: 5 um peptide for 12 hr. The protocol:
Cells were passaged in 12-well plate till the density approached 80%, Each well was transfected with 1 ug Notch plasmid using Lipofectamine 2000. 24 hr later, cells were treated with 5 um peptide for 12 hr. The Notch protein expression was determined by immunoblotting. Wherein, NICD (notch intracellular domain) was the intracellular fragment produced by γ-secretase cleavage of NotchΔE-myc, reflecting the level of γ-secretase cleavage of Notch.

Where [13] appears, read: Table 5, HEK293APP stable cells, TAT control line, concentration not given.
Where [14] appears, read: Table 8, HEK293APP stable cells, TAT = 1.
[15] abbreviates: Table 9, TAT-TM2 variants, HEK293APP cells, TAT = 1.
The mark [16] stands for this setting: Table 5, HEK293APP stable cells, 2 uM, TAT = 1.
Where [17] appears, read: Table 5, HEK293APP stable cells, 5 uM, TAT = 1.
Setting [18] is: Table 5, HEK293APP stable cells, 10 uM, TAT = 1.

As to `[Cl-].[Cl-].[Co+2]` [CoCl2], in the series on TRPC6 mRNA [1], the “TRPC6 expression (mRNA)” value was “could upregulate TRPC6 expression”.

`CC(C)[C@H](O)C(=O)N[C@@H](C)C(=O)N[C@@H]1C(=O)N(C)CCc2ccccc21` [Semagacestat]: in the series on γ-secretase (AD patients), the adverse gastrointestinal reaction entry is reported as “increased” and the “risk of skin cancer” value was “increased”. For the same compound, the “cognitive function of the AD patients” value with γ-secretase is “declined”.

With “APOE4: culture medium supernatant containing APOE4 isoform”, the entries for the “TRPC5 mRNA levels” value in the series on TRPC5 mRNA [2] and in the series on TRPC5 mRNA [4] were “could not affect the TRPC5 mRNA levels” and “could not affect TRPC5 mRNA levels”, respectively. The “TRPC6 mRNA levels” value in the series with TRPC6 mRNA [3] was “could not affect TRPC6 mRNA levels”; with TRPC6 mRNA [5] it was “could not affect the TRPC6 mRNA levels”.

As for “Control siRNA: control siRNAs, SEQ ID NO.:14 (sense strand) and SEQ ID NO.:15 (anti-sense strand) (sense GCACACCGAAGGAUAUUCUTT; antisense AGAAUAUCCUUCGGUGUGCTT; chemistry not given here)”, in series [6], the Aβ40 amounted to 1 and the Aβ42 was found to be 1.

As for “TAT (GRKKRRQRRRC; fusion peptide) [reference compound]”, the Aβ40 came to 1 in [7] (setting [13]); 1 in [7] (setting [14]); 1 in series [7] (setting [15]); 169.70 ± 61.78 pg/mg in series [8]; 1 in [10]. Further, the Aβ42 in [7] (setting [13]) is reported as 1; in series [7] (setting [14]) it was 1; in [7] (setting [15]) it was 1; in series [8], 492.60 ± 157.70 pg/mg; in [10], 1. In series [9], the “C99-GVP/UAS luciferase reporter system” value worked out at 1.

Consider “TAT-TM2: fusion peptide of TRPC6 second transmembrane domain (487-507aa) and TAT, SEQ ID NO.:17, TSCFSWMEMLIISWVIGMIWAGRKKRRQRRRC (fusion peptide)”, for which the “Aβ40, of the control group” value in [11] was 83%. Moreover, the “Aβ42, of the control group” value in [11] is given as 68%. The Aβ40 is recorded as 0.6825 ± 0.0498 in series [7] (setting [16]); 0.4863 ± 0.05919 in series [7] (setting [17]); 0.2481 ± 0.0763 in series [7] (setting [18]); 0.39 ± 0.03 in series [7] (setting [14]); 91.12 ± 43.56 pg/mg in series [8]; 0.39 ± 0.11 in [10]. Moreover, the Aβ42 in series [7] (setting [16]) is recorded as 0.6244 ± 0.03189; in [7] (setting [17]), 0.3255 ± 0.02046; in series [7] (setting [18]), 0.2214 ± 0.01597; in [7] (setting [14]) it was 0.40 ± 0.06; in series [8], 277.40 ± 124.10 pg/mg; in [10], 0.58 ± 0.04. The “NICD level (γ-secretase cleavage of NotchΔE-myc)” value in series [12] is “did not affect NICD level”. Also, the “C99-GVP/UAS luciferase reporter system” value in series [9] is 0.82 ± 0.02.

As for “TRPC5 siRNA: TRPC5 siRNA, SEQ ID NO.:20 AACGCCUUCUCCACGCUCUUU and SEQ ID NO.:21 AAAGAGCGUGGAGAAGGCGUU (listed as RNA, chemistry not given here)”, in series [6], the Aβ40 is given as 0.96 ± 0.09 and the Aβ42 is 1.03 ± 0.02.

In [6], “TRPC6 siRNA-1: TRPC6 siRNA, SEQ ID NO.:12 (sense strand) and SEQ ID NO.:13 (anti-sense strand) (sense CGGUGGUCAUCAACUACAATT; antisense UUGUAGUUGAUGACCACCGTT; chemistry not given here)” displayed an Aβ40 of 1.49 ± 0.16 and an Aβ42 of 1.89 ± 0.21.

For “TRPC6 siRNA-2: TRPC6 siRNA, SEQ ID NO.:18 GCUUGACUUUGGAAUGUUATT and SEQ ID NO.:19 UAACAUUCCAAAGUCAAGCTT (chemistry not given here)”, in [6], the Aβ40 is 1.33 ± 0.13 and the Aβ42 is listed as 1.63 ± 0.17.

(Values after patent publication US9790551B2, “Use of TRPC6 mRNA levels in peripheral blood cells for early detection/diagnosis of senile dementia” (Aging Wise Biotechnology, Inc., priority 2013, dated 2017).)
